Activity calls are given as the source filed them.
Key:
[1] = biological target: DNA damage-inducible transcript 3 protein (Mus musculus, UniProt P35639); format: functional, Cricetulus griseus
[2] = biological target: Nucleotide-binding oligomerization domain-containing protein 2 (Homo sapiens, UniProt Q9HC29); experiment: NOD2 signaling inhibitors, cell-based, luminescence, uHTS, HEK293 (AID 1566); format: functional
[3] = biological target: DNA (cytosine-5)-methyltransferase 1 (Homo sapiens, UniProt P26358); experiment: DNMT1 methyltransferase inhibitors, confirmation, biochemical, fluorescent molecular beacon (AID 602386); format: functional
[4] = test system: HEK293; experiment: cells; format: functional, cell-based; conditions: Homo sapiens
[5] = test system: HEK293; experiment: NOD1 signaling inhibitors, primary screen, cell-based, luminescence, uHTS (AID 1578); format: functional; conditions: Homo sapiens
[6] = biological target: T1, Histone-lysine N-methyltransferase NSD2 (Homo sapiens, UniProt O96028); format: biochemical
T1 sequence (O96028 whole entry): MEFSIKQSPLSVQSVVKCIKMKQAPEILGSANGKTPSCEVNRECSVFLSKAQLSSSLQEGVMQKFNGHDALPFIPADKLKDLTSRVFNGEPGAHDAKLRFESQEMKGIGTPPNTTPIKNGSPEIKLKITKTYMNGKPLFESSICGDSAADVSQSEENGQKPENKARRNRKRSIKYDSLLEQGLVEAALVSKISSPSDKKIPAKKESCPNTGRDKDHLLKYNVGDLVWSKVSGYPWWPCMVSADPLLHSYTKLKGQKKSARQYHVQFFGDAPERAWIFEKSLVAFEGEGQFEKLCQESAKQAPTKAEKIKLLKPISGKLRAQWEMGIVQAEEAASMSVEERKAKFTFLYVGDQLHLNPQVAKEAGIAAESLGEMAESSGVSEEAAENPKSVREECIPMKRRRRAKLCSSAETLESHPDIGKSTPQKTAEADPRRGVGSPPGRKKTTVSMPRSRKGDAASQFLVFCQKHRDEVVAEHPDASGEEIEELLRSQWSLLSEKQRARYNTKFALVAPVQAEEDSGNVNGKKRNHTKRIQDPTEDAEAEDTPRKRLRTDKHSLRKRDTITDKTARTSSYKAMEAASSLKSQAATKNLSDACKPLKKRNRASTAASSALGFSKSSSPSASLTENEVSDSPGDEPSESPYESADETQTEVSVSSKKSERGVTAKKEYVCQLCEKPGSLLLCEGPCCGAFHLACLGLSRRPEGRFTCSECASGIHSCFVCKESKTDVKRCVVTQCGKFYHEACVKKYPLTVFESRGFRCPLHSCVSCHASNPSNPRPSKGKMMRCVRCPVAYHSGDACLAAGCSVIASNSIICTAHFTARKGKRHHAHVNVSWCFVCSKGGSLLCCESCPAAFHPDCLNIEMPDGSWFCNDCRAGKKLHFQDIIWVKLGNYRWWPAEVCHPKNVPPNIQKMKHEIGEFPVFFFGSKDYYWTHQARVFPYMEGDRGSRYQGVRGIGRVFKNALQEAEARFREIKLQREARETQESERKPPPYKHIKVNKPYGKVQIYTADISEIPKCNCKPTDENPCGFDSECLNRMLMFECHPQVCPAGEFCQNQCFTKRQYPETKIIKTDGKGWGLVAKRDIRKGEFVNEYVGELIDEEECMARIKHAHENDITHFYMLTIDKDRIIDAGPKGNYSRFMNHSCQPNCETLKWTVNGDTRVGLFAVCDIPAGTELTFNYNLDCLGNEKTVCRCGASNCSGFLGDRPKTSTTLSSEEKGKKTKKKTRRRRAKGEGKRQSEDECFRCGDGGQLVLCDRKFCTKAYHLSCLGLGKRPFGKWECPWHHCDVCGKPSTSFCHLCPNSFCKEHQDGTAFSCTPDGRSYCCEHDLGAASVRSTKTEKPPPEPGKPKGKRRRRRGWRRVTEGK

[7] = test system: HEK293; experiment: cells; format: functional, cell-based; conditions: Homo sapiens; remark: listed apart in the source
[8] = THP-1 cell cytotoxicity, dose response, cytotoxicity control for Vif-APOBEC3G degradation inhibitor project, THP-1 cells (AID 1117359); format: functional; conditions: Human immunodeficiency virus 1, THP-1
[9] = test system: HEK293; experiment: cells; format: functional, cell-based; conditions: Homo sapiens; remark: listed apart in the source
[10] = test system: HEK293; experiment: NOD2 signaling inhibitors in MDP-stimulated cells, cell-based, uHTS, luminescence (AID 2001); format: functional; conditions: Homo sapiens
[11] = biological target: T2, Microphthalmia-associated transcription factor (Homo sapiens, UniProt O75030); experiment: TRPM1 promoter luciferase signal decrease, dose response, MITF inhibitor project, cell-based, SK-MEL-5, cherry-picked, set 3 (AID 493073); format: functional
T2 sequence (O75030 whole entry): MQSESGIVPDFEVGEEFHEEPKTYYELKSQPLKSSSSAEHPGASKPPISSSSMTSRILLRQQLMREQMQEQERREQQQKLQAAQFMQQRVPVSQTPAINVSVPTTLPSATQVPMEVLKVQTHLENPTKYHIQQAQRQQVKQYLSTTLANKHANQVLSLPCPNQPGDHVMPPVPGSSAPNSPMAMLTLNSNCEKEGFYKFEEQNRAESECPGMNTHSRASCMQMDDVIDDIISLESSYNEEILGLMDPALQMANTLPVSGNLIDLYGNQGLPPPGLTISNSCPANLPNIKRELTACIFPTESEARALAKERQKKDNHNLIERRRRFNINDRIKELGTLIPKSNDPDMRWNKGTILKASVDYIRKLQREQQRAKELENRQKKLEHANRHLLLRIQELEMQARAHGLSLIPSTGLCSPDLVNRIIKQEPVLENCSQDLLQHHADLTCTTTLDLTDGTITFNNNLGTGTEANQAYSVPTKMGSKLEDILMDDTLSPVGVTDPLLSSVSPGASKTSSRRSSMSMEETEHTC

[12] = biological target: T3, Type-1 angiotensin II receptor (Homo sapiens, UniProt P30556); experiment: AT1 receptor agonists, dose response, selectivity assay for APJ receptor agonist project, cell-based, uHTS hits (AID 488865); format: functional;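 note: beta-arrestin recruitment to AT1 measured by enzyme fragment complementation luminescence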
T3 sequence (P30556 whole entry): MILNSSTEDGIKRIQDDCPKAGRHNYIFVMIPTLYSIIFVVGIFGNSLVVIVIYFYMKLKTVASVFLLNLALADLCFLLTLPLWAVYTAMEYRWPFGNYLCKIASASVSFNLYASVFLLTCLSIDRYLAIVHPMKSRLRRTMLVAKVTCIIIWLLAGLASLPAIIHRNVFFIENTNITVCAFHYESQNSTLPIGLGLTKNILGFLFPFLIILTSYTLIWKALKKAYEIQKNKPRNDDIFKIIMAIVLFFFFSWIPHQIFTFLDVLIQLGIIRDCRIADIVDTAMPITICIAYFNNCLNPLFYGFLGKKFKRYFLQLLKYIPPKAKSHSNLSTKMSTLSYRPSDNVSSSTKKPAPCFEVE

[13] = Luminescence Cell-Based Dose Retest to Confirm Inhibitors of Cancer Stem Cells. [Related pubchem assays (depositor defined):AID2717, AID2721]; format: functional; conditions: Homo sapiens
[14] = biological target: T4, Voltage-gated N-type calcium channel alpha-1B subunit/Amyloid beta A4 precursor protein-binding family A member 1 (Homo sapiens, UniProt Q00975+Q02410); format: protein assay
[15] = biological target: T5, Heat shock factor protein 1 (Mus musculus, UniProt P38532); experiment: HSF1 potentiators in luciferase reporter cells, confirmation, cell-based, NIH3T3, luminescence, dose retest (AID 435004); format: functional;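 note: stress induced by proteasome inhibitor MG132 added 30 min after compound; luciferase reporter driven by HSF1 response element in NIH3T3 cells; actives raise luminescence as potentiators of the MG132 stress response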
T5 sequence (P38532 whole entry): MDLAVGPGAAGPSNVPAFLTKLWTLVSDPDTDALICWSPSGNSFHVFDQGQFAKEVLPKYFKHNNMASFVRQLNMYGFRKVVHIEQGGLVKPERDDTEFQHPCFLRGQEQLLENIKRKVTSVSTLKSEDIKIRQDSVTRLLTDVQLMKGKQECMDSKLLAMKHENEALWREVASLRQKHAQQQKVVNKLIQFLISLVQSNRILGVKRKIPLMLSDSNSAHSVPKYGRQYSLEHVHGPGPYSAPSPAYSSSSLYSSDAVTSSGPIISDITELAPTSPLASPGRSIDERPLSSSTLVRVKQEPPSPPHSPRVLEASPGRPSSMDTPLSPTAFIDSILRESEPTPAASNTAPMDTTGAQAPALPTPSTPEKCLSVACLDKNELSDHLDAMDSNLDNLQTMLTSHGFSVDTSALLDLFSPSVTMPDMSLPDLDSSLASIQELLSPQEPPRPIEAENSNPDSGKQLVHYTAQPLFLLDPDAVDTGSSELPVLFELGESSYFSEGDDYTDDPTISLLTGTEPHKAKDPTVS

[16] = biological target: T6, Runt-related transcription factor 1/Core-binding factor subunit beta (Homo sapiens, UniProt Q01196+Q13951); experiment: inhibitors of RUNX1 Runt–CBFb-SMMHC binding, primary screen, biochemical, FRET, Cerulean-Runt, Venus-CBFb-SMMHC, uHTS (AID 1434); format: protein assay;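 note: partner is the CBFb-SMMHC leukemia fusion protein rather than wild-type CBFb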
[17] = biological target: T6, Runt-related transcription factor 1/Core-binding factor subunit beta; experiment: inhibitors of RUNX1 Runt–CBFb-SMMHC binding, biochemical, TR-FRET (AID 1438); format: protein assay
[18] = biological target: T4, Voltage-gated N-type calcium channel alpha-1B subunit/Amyloid beta A4 precursor protein-binding family A member 1; format: protein assay; remark: listed apart in the source
[19] = biological target: Cytochrome P450 2C9 (Homo sapiens, UniProt P11712)
[20] = biological target: Troponin, cardiac muscle (Homo sapiens, UniProt P19429+P45379+P63316); experiment: Fluorescence-based biochemical high throughput dose response assay for activators of the calcium sensitivity of cardiac Regulated Thin Filaments (RTF). [Related pubchem assays (depositor defined):AID493008, AID493018, AID504382, AID504383]; format: protein-complex assay
[21] = biological target: T7, Cytochrome P450 1A2 (Homo sapiens, UniProt P05177);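 note: PubChem cytochrome P450 panel assay, CYP1A2 panel member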
T7 sequence (P05177 whole entry): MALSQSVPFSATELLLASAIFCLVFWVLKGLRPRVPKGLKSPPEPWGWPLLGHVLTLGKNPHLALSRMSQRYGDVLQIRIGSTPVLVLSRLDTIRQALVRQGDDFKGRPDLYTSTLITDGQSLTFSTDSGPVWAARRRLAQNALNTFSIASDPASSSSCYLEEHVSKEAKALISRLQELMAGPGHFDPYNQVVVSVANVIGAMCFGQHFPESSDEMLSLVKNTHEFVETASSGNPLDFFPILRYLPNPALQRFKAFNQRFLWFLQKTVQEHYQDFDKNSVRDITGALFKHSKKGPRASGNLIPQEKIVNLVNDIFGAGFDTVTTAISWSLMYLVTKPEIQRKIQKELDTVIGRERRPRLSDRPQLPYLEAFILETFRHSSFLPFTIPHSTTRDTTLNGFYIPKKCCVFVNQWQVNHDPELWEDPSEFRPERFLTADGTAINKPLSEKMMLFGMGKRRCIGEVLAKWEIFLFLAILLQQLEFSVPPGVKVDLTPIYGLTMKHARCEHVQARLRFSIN

[22] = biological target: T8, Cannabinoid receptor 1 (Homo sapiens, UniProt P21554); experiment: SAR analysis of agonists of the Cannabinoid Receptor 1 using an Image-Based Assay - Set 3. [Related pubchem assays (depositor defined):AID1961, AID1965]; format: functional
[23] = biological target: T9, Cannabinoid receptor 2 (Homo sapiens, UniProt P34972); experiment: SAR analysis of antagonists of the Cannabinoid Receptor 2 using an Image-Based Assay - Set 2. [Related pubchem assays (depositor defined):AID1961, AID1965]; format: functional
[24] = biological target: G-protein coupled receptor 55 (Homo sapiens, UniProt Q9Y2T6); experiment: SAR analysis of selective Agonists of GPR55 using an Image-Based Assay - Set 2. [Related pubchem assays (depositor defined):AID1961, AID1965]; format: functional
[25] = biological target: T8, Cannabinoid receptor 1; experiment: SAR analysis of antagonists of the Cannabinoid Receptor 1 using an Image-Based Assay - Set 3. [Related pubchem assays (depositor defined):AID1961, AID1965]; format: functional
[26] = biological target: T10, G-protein coupled receptor 35 (Homo sapiens, UniProt Q9HC97); experiment: SAR analysis of Agonists of the GPR35 Receptor using an Image-Based Assay - Set 3. [Related pubchem assays (depositor defined):AID1961, AID1965]; format: functional
[27] = biological target: T10, G-protein coupled receptor 35; experiment: SAR analysis of Antagonists of the GPR35 Receptor using an Image-Based Assay - Set 4. [Related pubchem assays (depositor defined):[…]]; format: functional
[28] = biological target: T9, Cannabinoid receptor 2; experiment: SAR analysis of agonists of the Cannabinoid Receptor 2 using an Image-Based Assay - Set 2. [Related pubchem assays (depositor defined):AID1961, AID1965]; format: functional

SMILES: COc1ccc(/C=C/C(=O)NC(=S)NNC(=O)c2cccnc2)cc1
- Absolute IC50 (CHOP) [1]: 10 µM

SMILES: CC(C)N1C(=O)/C(=C/C=C/c2ccco2)C(=O)N(Cc2ccco2)C1=O
- EC50 [2]: > 20 µM (inactive)
- IC50 [3]: 8.31 µM (active)
- IC50 [4]: > 20 µM (inactive)
- EC50 [5]: > 20 µM (inactive)
- AC50 [6]: 8.26 µM (active)
- IC50 [7]: > 20 µM (inactive)
- CC50 [8]: > 40 µM (active)
- IC50 [9]: 18.8 µM (active)
- IC50 [10]: > 20 µM (inactive)
- AC50 [11]: 9.97 µM (active)

SMILES: CCCCCCc1cc2cc(-c3nnc(-c4cc(OC)c(OC)c(OC)c4)o3)c(=O)oc2cc1O
- EC50 [12]: > 100 µM (inactive)
- AC50 [13]: 7.35 µM (active)

SMILES: Cc1cc(C)cc(-n2c3nc4ccccc4nc3c3c(=O)n(Cc4ccco4)cnc32)c1
- IC50 [14]: 1.28 µM (active)
- EC50 [15]: > 260 µM (inactive)
- IC50 [16]: > 100 µM (inactive)
- IC50 [17]: 34 µM (active)
- IC50 [18]: 4.14 µM (active)

SMILES: Cc1cc2nc(C3CCCN(C(=O)NCc4ccccc4)C3)[nH]c2cc1C (stereo not drawn)
- AC50 [19]: 22.4 µM (inconclusive)
- EC50 [20]: > 71.6 µM (inactive)
- AC50 [21]: 25.1 µM (inconclusive)

SMILES: COc1ccc(S(=O)(=O)N2CCOCC2)cc1NC(=O)c1cc2c(s1)CCCCCC2
- EC50 [22]: > 32 µM (inactive)
- IC50 [23]: > 32 µM (inactive)
- EC50 [24]: 17.7 µM (inactive)
- IC50 [25]: 18.2 µM (inactive)
- EC50 [26]: > 32 µM (inactive)
- IC50 [27]: > 32 µM (inactive)
- EC50 [28]: > 32 µM (inactive)

— ChEMBL document CHEMBL1201862, “PubChem BioAssay data set” (2004)
